Measured values reported in patent US9719987B2, “Immunoadsorbent compositions comprising hyaluronic acid oligosaccharides” (FUNDACIO INSTITUT D'INVESTIGACIO BIOMEDICA DE BELLVITGE …, priority 2012, dated 2017).
Values joined by “and” are separate entries in the source; they are usually repeats but may differ in a detail not shown here. Identical values can stand only once.

Tests used:
[1] = test system: anti-HA antibodies in rat serum; test: Specific ELISA for HA oligosaccharides, rats immunized with PRBC or hamster blood; type: binding; conditions: for level of preformed antibodies in rats compared to humans: rats before exposure; for level of preformed antibodies in rats compared to humans / production of IgM antibodies: FIG. 6; for production of IgM antibodies / production of IgG antibodies: rats; for production of IgM antibodies: three injections of PRBC or hamster blood every other day; for production of IgG antibodies: three injections of PRBC or hamster blood every other week, FIGS. 7 and 8
Method: Rats were immunized either with PRBC and hamster blood following two protocols to produce mainly IgM or IgG anti-carbohydrate antibodies. Three injections of 1 ml every other day (days 0, 2 and 4) and drawn of blood sample on day 5 was used to investigate IgM antibodies, and three injections every two weeks times 3, with blood obtained 12 days after last injection was used to investigate IgG antibodies.
(§1) The enzyme-linked immunosorbent assay (ELISA) plates were coated with HA oligosaccharides (disaccharide, tetrasaccharide and decasaccharide) conjugated with polyacrylamide, obtained from Shemyakin-Ovchinnikov Institute of Biorganic Chemistry, Russian Academy of Science (Moscow, Russia). The disaccharide form was synthesized in this institution, whilst the tetrasaccharide and decasaccharide molecules were obtained from Sigma, Spain, and bound to polyacrylamide in this center. The protocol for determination of anti-HA antibodies was based in previously described ELISAs to determine other anti-carbohydrate antibodies with minimal modifications (Mañez R et al. 2001 Xenotransplantation 8: 15-23; Obukhova P et al. 2007 Xenotransplantation 14: 627-635).

[2] = test system: anti-HA antibodies in human serum; test: Specific ELISA for HA oligosaccharides, human serum; type: binding
From the text: as §1
Humans also have preformed antibodies against HA disaccharide (von Gunten S et al. 2009 J Allergy Clin Immunol 123: 1268-1276; Huflejt M E et al. 2009 Mol Immunol 46: 3037-3049). Thus, we used human serums randomly selected to investigate by specific ELISAS, the presence of preformed antibodies against HA disaccharide, tetrasaccharide and decasacchride. Also, antibodies against HA oligosaccharides were investigated in rats immunized either with PRBC and hamster blood following two protocols to generate mainly IgM or IgG antibodies.
The inventors analyzed the level of anti-HA disaccharide antibodies by specific ELISA in patients with SLE and anti-DNA antibodies (Group A; n=17), SLE without anti-DNA antibodies (Group B; n=10) and controls from blood bank (Group C; n=13). The values for IgM anti-HA disaccharide antibodies were (mean±S.E.) 0.58±0.07 in Group A, 0.71±0.13 in Group B, and 0.74±0.11 in Group C, with p=0.1 in ANOVA comparing Group A with Groups B or C. For IgG, the values were 0.37±0.08 in Group A, 0.27±0.05 in Group B, 0.27±0.03 in Group C, with a p=0.3 in ANOVA comparing Group A with Groups B or C.

[3] = test system: anti-carbohydrate antibodies of baboon serums; test: Glycan array screening of baboon serums (406 glycans); type: binding, baboons (Papio anubis); conditions: for change of anti-carbohydrate antibodies after PRBC exposure: animal E19; for average±S.D. level of antibodies: before transplant/PRBC, animals without anti-Gal removal (A15, A14) or sampled before GAS914 (C63)
From the text: Heterotopic pig heart and kidney were placed in the abdominal cavity of baboons as previously described (Schmoeckel M et al. 1998 Transplantation 65:1570-1577; Cozzi E et al. 1997 Transplantation. 64:1383-1392). Blood samples for anti-carbohydrate antibody analysis were obtained from each animal before transplantation and at acute humoral xenotransplant rejection (AHXR).
Three animals (D29, E19 and E7) were exposed to weekly injections of 5 cubic centimeters (cc) of PRBC three times and blood samples for anti-carbohydrate antibodies were analysed one week after last injection. Another animal received 7 daily injections of 5 cc of PRBC (C63), until an augment of the level of anti-pig hemolytic antibodies (APHA) was observed, and blood samples were analysed at days 2, 20 and 30 relative to the first PRBC injection.
The carbohydrate-binding specificity of baboon serums obtained before and after pig organ xenotransplantation or PRBC exposure was investigated on glycan array v4.1 comprised of 406 glycans (Consortium for Functional Glycomics, Protein-Glycan Interaction Core-H) (http://www.functionalglycomics.org). Two different studies were performed: Consortium for Functional Glycomics projects #1313 and #1577. Pre and post-immunization samples from each animal were analysed in the same glycoarray study with exception of C63 day 20, which was performed in study #1577 whilst the other samples from this animal were analysed in study #1313. In order to assess the potential effect of a different glycoarray study, a linear mixed model with repeated measures was fitted for each carbohydrate, with its log expression as dependent variable and type of sample (pre or post-immunization) and the study (#1313 or #1577) as independent variables.

[4] = test system: hyaluronan (HA antigens) in pig xenograft tissue; test: Immunohistochemistry of IgM and IgG deposits in xenografts at AHXR with hyaluronidase pre-treatment; design: species or system pig xenograft in baboon
Method: In all the transplants an open xenograft biopsy was obtained 30 minutes after reperfusion, as well as at autopsy after AHXR. Tissue samples were fixed in 10% buffered formalin for at least 24 hours, dehydrated, and embedded in paraffin. Sections of 4 μm thickness were stained with hematoxylin and eosin Immunohistochemical examinations for IgG and IgM were performed in paraffin-embedded material. After inhibition of endogenous alkaline phosphatase with levamisol for 10 minutes, samples were incubated with goat anti-human IgG and IgM alkaline phosphatase conjugated (Sigma-Aldrich) for 30 minutes at 1:50 dilution. Tissue samples where then incubated with the EnVision™ G|2, Rabbit/Mouse (LINK) (Dako) following product recommendations. This reagent is a dextran polymer, which also carries antibodies to rabbit and mouse immunoglobulins. Finally, an alkaline phosphatase-labelled amplification polymer is added. The reaction is visualized by Permanent Red Chromogen also included in the kit. To investigate the potential role of hyaluronan as antigen some tissue sections were pre-treated with 50 u/mL of Streptomyces hyaluronidase (Sigma-Aldrich) for two hours at 37° C., which unlike other hyaluronidases is specific for hyaluronan.
To investigate the potential impact of HA antigens in AHXR, the presence of IgM and IgG deposits in tissue samples was investigated with and without previous incubation with Streptomyces hyaluronidase, which is specific for HA.

[5] = test system: human endothelial cells (HMEC); test: Flow cytometry of non-human primate antibody binding to HMEC pre-treated with hyaluronidase; type: cell-based
From the text: The authors have previously shown that immunization of non-human primates with pig blood is associated with the generation of xenoantibodies cross-reactive to human endothelial cells. To investigate whether HA antigens were involved in this reactivity, human endothelial cells (HMEC) were pre-treated with 20 Um′ of hyaluronidase from Streptomyces, which is specific for HA, for one hour. This hyaluronidase cleaves HA in fragments of 4 and 6 saccharides (tetra- and hexasaccharides). […] To show the effect of hyaluronidase pre-treatment in HA on HMEC cells, a hyaluronan-binding-protein (HABP), which binds to large molecular weight HA, was used as control (FIG. 9C).

[6] = baboon C63, 200 mg/kg CyP over 4 days from day 20, day relative to first PRBC injection
From the text: The dose of CyP was chosen because it largely eliminates the mature immune system, leading to a major reduction in antibody and autoantibody levels, while leaving hematopoietic precursors intact.

[7] = Group A: SLE and anti-DNA antibodies, n=17
[8] = Group B: SLE without anti-DNA antibodies, n=10
[9] = Group C: controls from blood bank, n=13
[10] = randomly selected human serums, FIG. 5
[11] = animal D17, kidney xenotransplantation
[12] = hyaluronidase pre-treatment 20 Um′, one hour, serum of primates immunized with pig blood

Compound: GlcAβ1-3GlcNAcβ-Sp8 [Glycan 300]
- level of preformed antibodies in rats compared to humans [1]: lower level
- production of IgM antibodies [1]: significant production of IgM antibodies
- production of IgG antibodies [1]: significant production
- IgG anti-HA disaccharide antibodies (mean±S.E.) [2, 7]: 0.37±0.08
- IgM anti-HA disaccharide antibodies (mean±S.E.) [2, 7]: 0.58±0.07
- IgG anti-HA disaccharide antibodies (mean±S.E.) [2, 8]: 0.27±0.05
- IgM anti-HA disaccharide antibodies (mean±S.E.) [2, 8]: 0.71±0.13
- IgG anti-HA disaccharide antibodies (mean±S.E.) [2, 9]: 0.27±0.03
- IgM anti-HA disaccharide antibodies (mean±S.E.) [2, 9]: 0.74±0.11
- preformed IgG antibodies in human serum [2, 10]: preformed IgG antibodies are only against HA disaccharide
- preformed IgM antibodies in human serum [2, 10]: preformed IgM antibodies
- cases with antibodies within the top 20 increases after PRBC exposure ([3]; PRBC exposure, 4 baboons): all the cases
- change of anti-carbohydrate antibody reactivity at AHXR vs before transplantation ([3]; animal A14, severe rejection): More significant raises
- change of anti-carbohydrate antibody reactivity at AHXR vs before transplantation ([3]; animal A15, no treatment, survival 4 days): decreased reactivity
- augment of antibodies after PRBC exposure ([3]; animal C63, day 20, two weeks after end of PRBC injections): evidenced
- level of antibodies after PRBC exposure ([3]; animal C63, day 30 after CyP treatment): higher level of anti-carbohydrate antibodies
- augment of antibodies after PRBC exposure ([3]; animal C63, day two, during PRBC exposure): not present
- change of anti-carbohydrate antibody reactivity at AHXR vs before transplantation ([3]; animal D10, mild rejection): moderated augment
- change of anti-carbohydrate antibody reactivity at AHXR vs before transplantation ([3]; animal D12, severe rejection): More significant raises
- change of anti-carbohydrate antibody reactivity at AHXR vs before transplantation [3, 11]: moderated augment
- change of anti-carbohydrate antibodies after PRBC exposure [3]: higher level and increase
- rank of average level of antibodies ([3]; baboons before exposure to PRBC): highest reactivity
- rank of average level of antibodies ([3]; baboons before pig organ xenotransplantation): second highest reactivity
- average±S.D. level of antibodies [3]: 18332±14201 net fluorescence units (NFU)

Compound: CC(=O)N[C@H]1[C@H](O[C@H]2[C@H](O)[C@@H](O)[C@H](O[C@H]3[C@H](O)[C@@H](CO)OC(O)[C@@H]3NC(C)=O)O[C@@H]2C(=O)O)O[C@H](CO)[C@@H](O)[C@@H]1O[C@@H]1O[C@H](C(=O)O)[C@@H](O)[C@H](O)[C@H]1O (stereo partly drawn) [HA tetrasaccharide]
- level of preformed antibodies in rats compared to humans [1]: lower level
- production of IgM antibodies [1]: significant production of IgM antibodies
- production of IgG antibodies [1]: significant production
- preformed IgM antibodies in human serum [2, 10]: preformed IgM antibodies

Compound: Hyaluronidase
- IgG antibody deposits in xenograft at AHXR, semiquantitative score ([4]; animal A14, AHXR III): complete disappearance
- IgM antibody deposits in xenograft at AHXR, semiquantitative score ([4]; animal A14, AHXR III): notably reduced
- IgG antibody deposits in xenograft at AHXR, semiquantitative score ([4]; animal A15, AHXR III): complete disappearance
- IgM antibody deposits in xenograft at AHXR, semiquantitative score ([4]; animal A15, AHXR III): did not show any change
- IgG antibody deposits in xenograft at AHXR, semiquantitative score ([4]; animal D10, AHXR I): complete disappearance
- IgM antibody deposits in xenograft at AHXR, semiquantitative score ([4]; animal D10, AHXR I): disappeared
- IgG antibody deposits in xenograft at AHXR, semiquantitative score ([4]; animal D12, AHXR III): remarkable reduction
- IgM antibody deposits in xenograft at AHXR, semiquantitative score ([4]; animal D12, AHXR III): notably reduced
- IgG antibody deposits in xenograft at AHXR, semiquantitative score ([4]; animal D17, AHXR III): remarkable reduction
- IgM antibody deposits in xenograft at AHXR, semiquantitative score ([4]; animal D17, AHXR III): did not show any change
- non-human primate IgG antibody binding to HMEC [5, 12]: augment
- non-human primate IgM antibody binding to HMEC [5, 12]: not observed
- HA expression on HMEC detected with hyaluronan-binding-protein (HABP) ([5]; hyaluronidase pre-treatment, compared to the baseline): reduction of HA expression

Compound: C[C@@H]1O[C@@H](OCCCN)[C@H](O)[C@H](O)[C@H]1O [Glycan 11, Rha-Sp8, reference compound]
- change of anti-carbohydrate antibody reactivity at AHXR vs before transplantation [3, 11]: augmented

Compound: CC(=O)N[C@H]1[C@H]([C@H](O)[C@H](O)CO)O[C@](OCCCN)(C(=O)O)C[C@@H]1O [Glycan 14, Neu5Acβ-Sp8, reference compound]
- change of anti-carbohydrate antibodies after PRBC exposure [3]: barely changed

Compound: O=P1(N(CCCl)CCCl)NCCCO1 (stereo not drawn) [CyP, cyclophosphamide]
- day of death because of side effects from CyP treatment [6]: 31 days and 30 days

Compound: CC(=O)N[C@H]1C(O)O[C@H](CO)[C@@H](O[C@@H]2O[C@H](CO)[C@H](O)[C@H](O[C@H]3O[C@H](CO)[C@H](O)[C@H](O)[C@H]3O)[C@H]2O)[C@@H]1O (stereo partly drawn) [Gal, Galα1-3Galβ1-4GlcNAc, reference compound]
- average±S.D. level of antibodies [3]: 3865±2892 net fluorescence units (NFU)
